Results: ChEMBL document CHEMBL5608195, “Identification and biological evaluation of fused tetrahydroisoquinoline derivatives as Wnt/β-catenin signaling inhibitors to suppress colorectal cancer” (Eur J Med Chem, 2024)
The source made the active and inactive calls. No cut-off for these calls is given here.

Columns and labels:
[1] = Half life in male ICR (CD-1) mouse at 5 mg/kg, iv measured upto 24 hrs by LC-MS/MS analysis; assay type: ADME, organism-based; details: in vivo
RKO [2] = experiment: Antiproliferative activity against human RKO cells assessed as inhibition of DNA proliferation at 10 uM incubated for 22 hrs by fluorescence based microscopic analysis; assay type: functional, cell-based
HCT-116 [3] = experiment: Antiproliferative activity against human HCT-116 cells assessed as inhibition of DNA replication at 10 uM incubated for 22 hrs by fluorescence based microscopic analysis; assay type: functional, cell-based
HCT-116 [4] = experiment: Antiproliferative activity against human HCT-116 cells assessed as inhibition rate at 20 uM incubated for 24 hrs by MTT assay relative to control; assay type: functional
RKO [5] = experiment: Antiproliferative activity against human RKO cells incubated for 24 hrs by MTT assay; assay type: functional, cell-based
[6] = Cmax in male ICR (CD-1) mouse at 20 mg/kg, po measured upto 24 hrs by LC-MS/MS analysis; assay type: ADME, organism-based; details: in vivo
[7] = Tmax in male ICR (CD-1) mouse at 10 mg/kg, ip measured upto 24 hrs by LC-MS/MS analysis; assay type: ADME, organism-based; details: in vivo
[8] = AUC (0 to infinity) in male ICR (CD-1) mouse at 10 mg/kg, ip measured upto 24 hrs by LC-MS/MS analysis; assay type: ADME, organism-based; details: in vivo
[9] = Clearance in male ICR (CD-1) mouse at 5 mg/kg, iv measured upto 24 hrs by LC-MS/MS analysis; assay type: ADME, organism-based; details: in vivo
RKO [10] = experiment: Inhibition of colony formation human RKO cells incubated for 24 hrs by crystal violet staining based analysis; assay type: functional, cell-based; details: dose 6-10 µM
HCT-116 [11] = experiment: Induction of cell cycle arrest in human HCT-116 cells assessed as accumulation of cells at G2/M phase incubated for 24 hrs by PI staining based flow cytometry; assay type: functional; details: dose 6-10 µM
RKO [12] = experiment: Induction of cell cycle arrest in human RKO cells assessed as accumulation of cells at S phase incubated for 24 hrs by PI staining based flow cytometry; assay type: functional; details: dose 6-10 µM
RKO [13] = experiment: Induction of cell cycle arrest in human RKO cells assessed as accumulation of cells at G2/M phase incubated for 24 hrs by PI staining based flow cytometry; assay type: functional; details: dose 6-10 µM
RKO [14] = experiment: Induction of cell cycle arrest in human RKO cells assessed as downregulation of CDK1 protein level by Western blot analysis; assay type: functional, cell-based
HCT-116 [15] = experiment: Induction of cell cycle arrest in human HCT-116 cells assessed as downregulation of c-Myc protein level by Western blot analysis; assay type: functional, cell-based
RKO [16] = experiment: Induction of cell cycle arrest in human RKO cells assessed as downregulation of c-Myc protein level by Western blot analysis; assay type: functional, cell-based
HCT-116 [17] = experiment: Induction of cell cycle arrest in human HCT-116 cells assessed as downregulation of Cyclin A2 protein level by Western blot analysis; assay type: functional, cell-based
HCT-116 [18] = experiment: Induction of cell cycle arrest in human HCT-116 cells assessed as upregulation of P21 protein level by Western blot analysis; assay type: functional, cell-based
RKO [19] = experiment: Induction of cell cycle arrest in human RKO cells assessed as upregulation of P21 protein level by Western blot analysis; assay type: functional, cell-based
RKO [20] = experiment: Inhibition of Wnt/beta-catenin signaling pathway in human RKO cells assessed as downregulation of beta-catenin expression incubated for 24 hrs by qRT-PCR analysis; assay type: cell-based; details: dose <= 10.0 µM
RKO [21] = experiment: Inhibition of Wnt/beta-catenin signaling pathway in human RKO cells assessed as induction of beta-catenin degradation pretreated with cycloheximide followed by compound addition by Western blot analysis; assay type: cell-based; details: time <= 6.0 hrs, TDE = time-dependent effect
HCT-116 [22] = experiment: Inhibition of Wnt/beta-catenin signaling pathway in human HCT-116 cells assessed as induction of beta-catenin degradation pretreated with cycloheximide followed by compound addition by Western blot analysis; assay type: cell-based; details: time <= 6.0 hrs, TDE = time-dependent effect
HCT-116 [23] = experiment: Antitumor activity against human HCT-116 cells xenografted in male BALB/c mouse assessed as tumor growth inhibition at 40 mg/kg, ip measured every two days for upto 20 days relative to control; assay type: functional; details: HCT-116, 480 h, time <= 20 day, read-out: TGI
[24] = Toxicity in male BALB/c mouse xenografted with human HCT-116 cells assessed as effect on serum AST level at 10 to 40 mg/kg, ip by biochemical analysis; assay type: organism-based; details: in vivo, dose 10-40 mg/kg
[25] = Toxicity in male BALB/c mouse xenografted with human HCT-116 cells assessed as effect on serum creatinine level at 10 to 40 mg/kg, ip by biochemical analysis; assay type: organism-based; details: in vivo, dose 10-40 mg/kg
[26] = Toxicity in male BALB/c mouse xenografted with human HCT-116 cells assessed as effect on serum uric acid level at 10 to 40 mg/kg, ip by biochemical analysis; assay type: organism-based; details: in vivo, dose 10-40 mg/kg
[27] = Toxicity in male BALB/c mouse xenografted with human HCT-116 cells assessed as effect on serum urea level at 10 to 40 mg/kg, ip by biochemical analysis; assay type: organism-based; details: in vivo, dose 10-40 mg/kg
[28] = Toxicity in male BALB/c mouse xenografted with human HCT-116 cells assessed as histological change in heart at 10 to 40 mg/kg, ip by H and E staining based optical microscopic analysis; assay type: organism-based; details: in vivo, dose 10-40 mg/kg
[29] = Toxicity in male BALB/c mouse xenografted with human HCT-116 cells assessed as histological change in kidney at 10 to 40 mg/kg, ip by H and E staining based optical microscopic analysis; assay type: organism-based; details: in vivo, dose 10-40 mg/kg
HCT-116 [30] = experiment: Antitumor activity against human HCT-116 cells xenografted in male BALB/c mouse assessed as decrease in Ki-67 protein level at 10 to 40 mg/kg, ip by Immunohistochemical staining based analysis; assay type: functional, organism-based; details: dose 10-40 mg/kg
HCT-116 [31] = experiment: Inhibition of Hsp90/beta-catenin in human HCT-116 cells at 6 to 10 uM incubated for 24 hrs by co-immunoprecipitation analysis; assay type: cell-based; details: dose 6-10 µM

With `CC12c3ccc(Cl)cc3CCN1CCc1c2[nH]c2ccc(Cl)cc12` (stereo unspecified) the half-life [1] was 85.2 min, the Activity (RKO [2]) was “Active” and the Activity (HCT-116 [3]) was “Active”. The inhibition at 20 µM (HCT-116 [4]) was 89.2%, the IC50 (RKO [5]) was 7.97 µM and the Cmax [6] was 832 ng/mL. For the same molecule, the Tmax [7] was 15 min, the AUC(0-inf) [8] was 2900 ng·h/mL and the clearance [9] was 56.1 mL/min/kg. For the same molecule, the inhibition (RKO [10]) was “Dose-Dependent Effect”, the Activity (HCT-116 [11]) was “Dose-Dependent Effect” and the Activity (RKO [12]) was “Dose-Dependent Effect”. The Activity (RKO [13]) was “Dose-Dependent Effect”, the Activity (RKO [14]) was “Dose-Dependent Effect” and the Activity (HCT-116 [15]) was “Dose-Dependent Effect”. For the same molecule, the Activity (RKO [16]) was “Dose-Dependent Effect”, the Activity (HCT-116 [17]) was “Dose-Dependent Effect” and the Activity (HCT-116 [18]) was “Dose-Dependent Effect”. For the same molecule, the Activity (RKO [19]) was “Dose-Dependent Effect”, the inhibition (RKO [20]) was “Dose-Dependent Effect” and the inhibition (RKO [21]) was “Tde”. The inhibition (HCT-116 [22]) was “Tde”, the inhibition in vivo at 40 mg/kg (HCT-116 [23]) was 71.6% and the Activity [24] was “Non-Toxic”. The Activity [25] was “Non-Toxic”, the Activity [26] was “Non-Toxic” and the Activity [27] was “Non-Toxic”. For the same molecule, the Activity [28] was “Non-Toxic”, the Activity [29] was “Non-Toxic” and the Activity (HCT-116 [30]) was “Active”. For the same molecule, the inhibition (HCT-116 [31]) was “Dose-Dependent Effect”.
